Reference: patent US20130261142A1, “COMPOUNDS USED FOR TREATING CANCER AND THE USE THEREOF” (priority 2010, published 2013)
“Also recorded” adds a separate entry of the source. Where a name gives a salt, the structure may show the parent alone.

Columns and labels:
[1] = system: OVCA sps cells; experiment: LOPAC compounds tested on OVCA sps cells, MTS / ATP-based assay (Table 3); type: cell-based; details: proliferation and differentiation
Experimental: CP70 sps cells were seeded in a 96-well culture plate (1×10^3 cells/well) and cultured for 24 hr, and then treated with 30 μM of various compounds selected from the LOPAC database. Following 3-day treatment, the vitality of the treated cells was measured by CellTiter-Glo® Luminescent Cell Vitality Assay kit (Promega) according to the manufacturer's instructions.
(§1) The vitality of the treated cells was measured by MTS assay using MTS-based CellTiter 96 aqueous non-radioactive cell proliferation assay kit (Promega) according to the manufacturer's instructions.

[2] = system: CP70 sps cells; experiment: Cytotoxicity / vitality of CP70 sps cells (MTS assay); details: for inhibition / cytotoxicity effect on CP70 sps (OVCA sps) cells: 3 μM, MTS assay
Experimental: as §1
The vitality of the CP70 sps cells was measured by MTS assay. For preclinical test, two groups with five mice each were i.p. injected with 1×10^4 of CP70 sps cells alone or followed by Niclosamide treatment (10 mg/kg/daily) from day 1 to day 47, respectively. The body weights of the two groups of mice were monitored every 3 days during day 36 to day 48. After 48 days, the mice were sacrificed to examine the tumor nodules formation in the abdominal cavity.

[3] = system: OVCICs sps cells collected from ovarian cancer patient(s); experiment: Patients' OVCA specimen-derived cells (pdOVCICs / OVCICs sps), MTS assay; type: cell-based, human; details: in vitro
Experimental: A total of 5000 pdOVCICs were seeded onto each well in 96-well plates and each plate was treated with different concentrations of Niclosamide in duplicates for 3 days. The vitality of pdOVCICs cells was measured by MTS assay.

[4] = system: CP70 cells; experiment: Cytotoxicity on CP70 (OVCA) cells
[5] = system: MCF-7 SPS cells; experiment: LOPAC compounds tested on MCF-7 SPS cells (Table 2); details: Compounds that inhibit cancer stem cells, 3 μM stated for Niclosamide
Description: The morphology and number of the spheroids were further analyzed by software image pro plus.

[6] = Cisplatin treatment, FIGS. 10A-10C

`CC(C)(C)[C@]1(O)CCN2Cc3cccc4c3[C@H](c3ccccc3CC4)[C@@H]2C1.Cl` [(+)-Butaclamol hydrochloride] was tested, and the “Cancer cell survival (%)” value [1] was 42.81%, the “inhibition / cytotoxicity effect on CP70 sps (OVCA sps) cells” value (“inhibition / cytotoxicity effect” below) ([2]; hydrochloride) was “can kill; also recorded: significant inhibition effect” and the “inhibition / cytotoxicity effect” value ([2]; listed as (+)-butaclamol hydrochloride, hydrochloride) was “significant inhibition effects”. For the same compound, the “numbers of ovarian cancer stem cells in CP70 SPS cell culture in vitro” value ([2]; FIG. 14 / FIG. 15) was “inhibited”, the “differentiation and growth of ovarian cancer cells” value [3] was “successfully inhibited” and the “cytotoxicity effect on CP70 (OVCA) cells” value ([4]; 3 μM, hydrochloride) was “can kill; also recorded: toxic”.
With `COc1cc2nc(N3CCN(C(=O)c4ccco4)CC3)nc(N)c2cc1OC` [Prazosin hydrochloride] the “Cancer cell survival (%)” value [5] was 1.1%.
`Cc1cc(N)c2ccccc2[n+]1CCCCCCCCCC[n+]1c(C)cc(N)c2ccccc21` [Dequalinium dichloride] was tested, and the “Cancer cell survival (%)” value [1] was 54.68%.
In the case of `CCN(CC)C(=S)SSC(=S)N(CC)CC` [Tetraethylthiuram disulfide], the “Cancer cell survival (%)” value [5] is reported as 10.18%.
For `CC[C@H]1CN2CCc3cc(OC)c(OC)cc3[C@@H]2C[C@@H]1C[C@H]1NCCc2cc(OC)c(OC)cc21` [Emetine dihydrochloride hydrate], the “Cancer cell survival (%)” value [1] was 49.13% and the “Cancer cell survival (%)” value [5] was 7.3%.
With `CN1CCN(c2nc3cc(C(F)(F)F)ccc3n3cccc23)CC1.O=C(O)/C=C\C(=O)O` [CGS-12066A maleate, 7-Trifluoromethyl-4-(4-methyl-1-piperazinyl)pyrrolo-[1,2-a]quinoxaline maleate salt] the “Cancer cell survival (%)” value [5] was 16.3%.
For Vinblastine sulfate salt, the “Cancer cell survival (%)” value [1] was 64.6%.
With `N.N.[Cl][Pt][Cl]` [Cisplatin] the “inhibition of CP70 sps cells” value [2, 6] was “inhibited” and the “inhibition of CP70 cells” value [4, 6] was “inhibited”.
`O.c1cnc2c(c1)ccc1cccnc12` [1,10-Phenanthroline monohydrate] was tested, and the “Cancer cell survival (%)” value [5] was 7%.
In the case of `COc1ccc2c(c[n+](C)c3c4cc5c(cc4ccc23)OCO5)c1OC` [Chelerythrine chloride], the “Cancer cell survival (%)” value [5] is reported as 9.9%.
With `CC[C@@]1(O)C(=O)OCc2c1cc1n(c2=O)Cc2cc3ccccc3nc2-1` [(S)-(+)-Camptothecin] the “Cancer cell survival (%)” value [1] was 39.11% and the “Cancer cell survival (%)” value [5] was 8.2%.
For `O=C1c2c(O)ccc(O)c2C(=O)c2c(NCCNCCO)ccc(NCCNCCO)c21` [Mitoxantrone], the “Cancer cell survival (%)” value [5] was 5.2%.
`COc1ccc2c(c1)/C(=C/c1cnc[nH]1)C(=O)N2` [SU 9516, 3-[1-(3H-Imidazol-4-yl)-meth-(Z)-ylidene]-5-methoxy-1,3-dihydro-indol-2-one] was tested, and the “Cancer cell survival (%)” value [5] was 10.7%.
For `CC1(C)CCC2=C(O1)c1ccccc1C(=O)C2=O` [beta-Lapachone, 3,4-Dihydro-2,2-Dimethyl-2H-Naphtho[1,2-B] Pyran-5,6-Dione], the “Cancer cell survival (%)” value [5] was 1.67%.
With `C[n+]1cc2c3c(ccc2c2ccc4cc5c(cc4c21)OCO5)OCO3` [Sanguinarine chloride] the “Cancer cell survival (%)” value [1] was 20.37%.
For `CCn1cnc2c(Nc3cccc(Cl)c3)nc(N[C@@H]3CCCC[C@@H]3N)nc21.Cl` (relative stereo) [CGP-74514A hydrochloride, N2-(cis-2-Aminocyclohexyl)-N6-(3-chlorophenyl)-9-ethyl-9H-purine-2,6-diamine hydrochloride], the “Cancer cell survival (%)” value [5] was 10%.
In the case of `N.S=C(S)N1CCCC1` [Ammonium pyrrolidinedithiocarbamate], the “Cancer cell survival (%)” value [5] is reported as 4.4%.
In the case of `O=C1Nc2cc(Br)ccc2/C1=C1/Nc2ccccc2/C1=N\O` [BIO, (2′Z,3′E)-6-Bromoindirubin-3′-oxime], the “Cancer cell survival (%)” value [5] is reported as 2.4%.
With `O=Nc1ccc2oc(=O)ccc2c1` [6-Nitroso-1,2-benzopyrone] the “Cancer cell survival (%)” value [5] was 1.5%.
`CC(=O)c1c(O)c(C)c(O)c(Cc2c(O)c3c(c(C(=O)/C=C/c4ccccc4)c2O)OC(C)(C)C=C3)c1O` [Rottlerin] was tested, and the “Cancer cell survival (%)” value [1] was 38.89% and the “inhibition / cytotoxicity effect” value [2] was “significant inhibition effect; also recorded: toxic”.
In the case of `COc1ccc(NC(=O)c2ccc(-c3ccc(-c4noc(C)n4)cc3C)cc2)cc1N1CCN(C)CC1.Cl.O` [GR 127935 hydrochloride, N-[4-Methoxy-3-(4-methyl-1-piperazinyl)phenyl]-2′-methyl-4′-(5-methyl-1,2,4-oxadiazol-3-yl)-1,1′-biphenyl-4-carboxamide hydro chloride hydrate], the “Cancer cell survival (%)” value [5] is reported as 2.8%.
In the case of `C[C@@H]1O[C@@H](O[C@H]2C[C@@H](O)[C@]3(CO)[C@H]4[C@H](O)C[C@]5(C)[C@@H]([C@@H]6COC(=O)C6)CC[C@]5(O)[C@@H]4CC[C@]3(O)C2)[C@H](O)[C@H](O)[C@H]1O` [Dihydroouabain], the “Cancer cell survival (%)” value [1] is reported as 45.97% and the “Cancer cell survival (%)” value [5] is reported as 9.1%.
For `CCN(CC)CCCC(C)Nc1c2ccc(Cl)cc2nc2ccc(OC)cc12` (centres unmarked) [Quinacrine dihydrochloride], the “Cancer cell survival (%)” value [5] was 3.8%.
With `CC(C)(C)c1ccc(S(=O)(=O)/C=C/C#N)cc1` [Bay 11-7085, (E)3-((4-t-Butylphenyl)sulfonyl)-2-propenenitrile] the “Cancer cell survival (%)” value [5] was 4%.
For `CC1=C(/C=C/C(C)=C/C=C/C(C)=C/C(=O)Nc2ccc(O)cc2)C(C)(C)CCC1` [Retinoic acid p-hydroxyanilide], the “Cancer cell survival (%)” value [5] was 13%.
With `Clc1ccc(C(c2ccc(Cl)cc2)n2cc[n+](CC(OCc3ccc(Cl)cc3Cl)c3ccc(Cl)cc3Cl)c2)cc1.[Cl-]` (centres unmarked) [Calmidazolium chloride, 1-[bis(4-Chlorophenyl)methyl]-3-[2-(2,4-dichlorophenyl)-2-(2,4-dichlorobenzyloxy)ethyl]-1H-imidazolium chloride] the “Cancer cell survival (%)” value [5] was 3.9%.
`Brc1c(Br)c(Br)c2[nH]cnc2c1Br` [CK2 Inhibitor 2, 4,5,6,7-tetrabromobenzimidazole] was tested, and the “Cancer cell survival (%)” value [5] was 8.3%.
`C=CC1=C(C)c2cc3[nH]c(cc4nc(cc5[nH]c(cc1n2)c(C)c5CCC(=O)O)C(CCC(=O)O)=C4C)c(C)c3C=C` [Protoporphyrin IX disodium] was tested, and the “Cancer cell survival (%)” value [1] was 34.75% and the “Cancer cell survival (%)” value [5] was 1.8%.
In the case of `c1ccc2c(c1)[I+]c1ccccc1-2` [Diphenyleneiodonium chloride], the “Cancer cell survival (%)” value [1] is reported as 31.37%.
In the case of `N#Cc1c(-c2ccccc2)no[n+]1[O-]` [4-Phenyl-3-furoxancarbonitrile], the “Cancer cell survival (%)” value [5] is reported as 1.1%.
With `C[C@@H]1O[C@@H](O[C@H]2C[C@@H](O)[C@]3(CO)[C@H]4[C@H](O)C[C@]5(C)[C@@H](C6=CC(=O)OC6)CC[C@]5(O)[C@@H]4CC[C@]3(O)C2)[C@H](O)[C@H](O)[C@H]1O` [Ouabain] the “Cancer cell survival (%)” value [1] was 26.69% and the “Cancer cell survival (%)” value [5] was 1.8%.
With `CNc1ccc2oc(C[C@H]3O[C@@]4(CC[C@H]3C)O[C@H]([C@H](C)C(=O)c3ccc[nH]3)[C@H](C)C[C@H]4C)nc2c1C(=O)O` [Calcimycin] the “Cancer cell survival (%)” value [1] was 42.70%.
In the case of `CC1CCCC=CC2CC(O)CC2C(O)C=CC(=O)O1` (centres unmarked) [γ-4-Dihydroxy-2-(6-hydroxy-1-heptenyl)-4-cyclopentanecrotonic acid λ-lactone], the “Cancer cell survival (%)” value [1] is reported as 41.18% and the “Cancer cell survival (%)” value [5] is reported as 6.6%.
In the case of `CCCCCCCCCCCCCCCC(=O)OC(CC(=O)O)C[N+](C)(C)C.[Cl-]` (racemic) [Palmitoyl-DL-Carnitine chloride], the “Cancer cell survival (%)” value [5] is reported as 9.7%.
